In experiment [1] the target is cGMP-inhibited 3',5'-cyclic phosphodiesterase 3A (Homo sapiens, UniProt Q14432). The format is functional.
Experiment [2] has as its target Prostaglandin G/H synthase 1 (Homo sapiens, UniProt P23219). The format is functional.
The target in experiment [3] is Sodium-dependent noradrenaline transporter (Homo sapiens, UniProt P23975).
Experiment [4] has as its target T1, Thromboxane A2 receptor (Homo sapiens, UniProt P21731).
T1 sequence (P21731 whole entry): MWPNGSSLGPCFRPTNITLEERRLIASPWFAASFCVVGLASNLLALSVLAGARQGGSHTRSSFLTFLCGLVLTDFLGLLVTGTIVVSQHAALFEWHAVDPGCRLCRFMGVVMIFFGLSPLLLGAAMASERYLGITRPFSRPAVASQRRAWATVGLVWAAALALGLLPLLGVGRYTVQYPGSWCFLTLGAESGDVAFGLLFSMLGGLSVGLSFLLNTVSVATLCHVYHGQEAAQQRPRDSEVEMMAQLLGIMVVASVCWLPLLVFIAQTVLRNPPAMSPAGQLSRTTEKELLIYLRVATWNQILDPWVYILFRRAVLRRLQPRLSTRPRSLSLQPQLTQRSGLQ
The format is functional, cell-based.

For experiment [5], the target named is D(1A) dopamine receptor (Homo sapiens, UniProt P21728).
Experiment [6] concerns the target D(3) dopamine receptor (Homo sapiens, UniProt P35462).
The target of experiment [7] is Voltage-gated inwardly rectifying potassium channel KCNH2 (Homo sapiens, UniProt Q12809). Format: functional.
Sequence of Voltage-gated inwardly rectifying potassium channel KCNH2 (Q12809 whole entry): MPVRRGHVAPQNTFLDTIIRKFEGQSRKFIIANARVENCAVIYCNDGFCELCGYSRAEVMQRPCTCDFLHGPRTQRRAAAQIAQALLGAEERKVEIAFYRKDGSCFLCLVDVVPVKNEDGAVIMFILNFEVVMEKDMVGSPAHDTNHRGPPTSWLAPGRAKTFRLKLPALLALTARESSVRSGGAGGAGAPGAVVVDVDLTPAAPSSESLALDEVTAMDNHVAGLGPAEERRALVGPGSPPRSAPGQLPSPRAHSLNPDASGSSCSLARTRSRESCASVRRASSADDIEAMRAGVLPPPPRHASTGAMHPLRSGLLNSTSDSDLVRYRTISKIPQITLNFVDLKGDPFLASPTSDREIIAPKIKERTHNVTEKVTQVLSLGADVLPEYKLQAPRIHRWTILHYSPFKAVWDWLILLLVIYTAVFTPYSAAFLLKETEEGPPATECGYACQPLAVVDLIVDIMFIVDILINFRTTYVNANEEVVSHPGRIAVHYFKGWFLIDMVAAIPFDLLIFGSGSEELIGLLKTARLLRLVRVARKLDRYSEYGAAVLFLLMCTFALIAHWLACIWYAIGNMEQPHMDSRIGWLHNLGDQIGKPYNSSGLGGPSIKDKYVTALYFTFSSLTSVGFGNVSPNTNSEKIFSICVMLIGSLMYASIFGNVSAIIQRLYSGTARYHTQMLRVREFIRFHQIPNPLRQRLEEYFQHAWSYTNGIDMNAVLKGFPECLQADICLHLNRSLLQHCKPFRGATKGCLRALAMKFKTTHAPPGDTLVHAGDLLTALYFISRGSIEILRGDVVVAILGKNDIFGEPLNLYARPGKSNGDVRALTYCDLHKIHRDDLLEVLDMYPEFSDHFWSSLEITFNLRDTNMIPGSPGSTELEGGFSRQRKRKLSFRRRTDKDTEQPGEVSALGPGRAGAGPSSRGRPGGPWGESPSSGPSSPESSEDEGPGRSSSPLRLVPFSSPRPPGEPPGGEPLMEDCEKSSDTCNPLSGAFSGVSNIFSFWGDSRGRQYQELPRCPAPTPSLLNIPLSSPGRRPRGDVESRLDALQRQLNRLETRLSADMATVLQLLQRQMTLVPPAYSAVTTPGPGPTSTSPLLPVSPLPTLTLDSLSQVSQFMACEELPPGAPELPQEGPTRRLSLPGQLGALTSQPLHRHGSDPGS
The target in experiment [8] is T2, Alpha-2A adrenergic receptor (Homo sapiens, UniProt P08913).
T2 sequence (P08913 whole entry): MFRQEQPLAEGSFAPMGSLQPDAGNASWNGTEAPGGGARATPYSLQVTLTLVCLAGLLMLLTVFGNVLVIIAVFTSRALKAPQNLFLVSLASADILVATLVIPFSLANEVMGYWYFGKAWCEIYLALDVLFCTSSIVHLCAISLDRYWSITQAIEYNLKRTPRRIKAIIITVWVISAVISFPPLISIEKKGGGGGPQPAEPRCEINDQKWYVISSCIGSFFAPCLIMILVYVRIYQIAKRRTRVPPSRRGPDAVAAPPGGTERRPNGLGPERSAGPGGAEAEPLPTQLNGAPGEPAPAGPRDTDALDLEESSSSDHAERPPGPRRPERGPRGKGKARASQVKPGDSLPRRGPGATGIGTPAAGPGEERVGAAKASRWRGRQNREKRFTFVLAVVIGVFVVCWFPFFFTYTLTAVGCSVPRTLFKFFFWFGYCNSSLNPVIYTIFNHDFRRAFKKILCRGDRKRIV

Experiment [9] concerns the target T3, 5-hydroxytryptamine receptor 1A (Homo sapiens, UniProt P08908).
T3 sequence (P08908 whole entry): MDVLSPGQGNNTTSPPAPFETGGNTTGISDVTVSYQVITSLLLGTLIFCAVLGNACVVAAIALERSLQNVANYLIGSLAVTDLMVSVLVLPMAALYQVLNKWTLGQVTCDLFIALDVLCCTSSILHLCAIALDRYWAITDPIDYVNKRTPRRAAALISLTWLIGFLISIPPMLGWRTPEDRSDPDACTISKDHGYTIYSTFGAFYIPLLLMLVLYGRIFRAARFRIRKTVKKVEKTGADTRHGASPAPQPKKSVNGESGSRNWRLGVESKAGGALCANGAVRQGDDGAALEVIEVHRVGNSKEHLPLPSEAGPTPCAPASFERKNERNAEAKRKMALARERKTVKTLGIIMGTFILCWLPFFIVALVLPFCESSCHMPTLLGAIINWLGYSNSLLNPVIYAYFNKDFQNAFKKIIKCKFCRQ

In experiment [10] the target is Histamine H3 receptor (Homo sapiens, UniProt Q9Y5N1).
Sequence of Histamine H3 receptor (Q9Y5N1 whole entry): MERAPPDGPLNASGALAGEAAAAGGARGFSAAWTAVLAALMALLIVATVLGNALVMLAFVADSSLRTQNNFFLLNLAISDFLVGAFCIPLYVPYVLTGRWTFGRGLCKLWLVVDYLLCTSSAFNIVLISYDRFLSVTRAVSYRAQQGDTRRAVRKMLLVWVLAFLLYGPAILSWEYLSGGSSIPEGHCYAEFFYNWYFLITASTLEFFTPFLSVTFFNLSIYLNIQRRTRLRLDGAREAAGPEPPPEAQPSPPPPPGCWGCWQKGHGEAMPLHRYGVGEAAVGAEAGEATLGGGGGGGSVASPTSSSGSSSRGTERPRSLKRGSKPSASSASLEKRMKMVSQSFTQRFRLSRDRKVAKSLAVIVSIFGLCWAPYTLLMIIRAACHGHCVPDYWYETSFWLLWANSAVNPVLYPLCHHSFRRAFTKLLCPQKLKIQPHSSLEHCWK
In experiment [11] the target is Bile salt export pump (Homo sapiens, UniProt O95342). The format is functional.
Sequence of Bile salt export pump (O95342 whole entry): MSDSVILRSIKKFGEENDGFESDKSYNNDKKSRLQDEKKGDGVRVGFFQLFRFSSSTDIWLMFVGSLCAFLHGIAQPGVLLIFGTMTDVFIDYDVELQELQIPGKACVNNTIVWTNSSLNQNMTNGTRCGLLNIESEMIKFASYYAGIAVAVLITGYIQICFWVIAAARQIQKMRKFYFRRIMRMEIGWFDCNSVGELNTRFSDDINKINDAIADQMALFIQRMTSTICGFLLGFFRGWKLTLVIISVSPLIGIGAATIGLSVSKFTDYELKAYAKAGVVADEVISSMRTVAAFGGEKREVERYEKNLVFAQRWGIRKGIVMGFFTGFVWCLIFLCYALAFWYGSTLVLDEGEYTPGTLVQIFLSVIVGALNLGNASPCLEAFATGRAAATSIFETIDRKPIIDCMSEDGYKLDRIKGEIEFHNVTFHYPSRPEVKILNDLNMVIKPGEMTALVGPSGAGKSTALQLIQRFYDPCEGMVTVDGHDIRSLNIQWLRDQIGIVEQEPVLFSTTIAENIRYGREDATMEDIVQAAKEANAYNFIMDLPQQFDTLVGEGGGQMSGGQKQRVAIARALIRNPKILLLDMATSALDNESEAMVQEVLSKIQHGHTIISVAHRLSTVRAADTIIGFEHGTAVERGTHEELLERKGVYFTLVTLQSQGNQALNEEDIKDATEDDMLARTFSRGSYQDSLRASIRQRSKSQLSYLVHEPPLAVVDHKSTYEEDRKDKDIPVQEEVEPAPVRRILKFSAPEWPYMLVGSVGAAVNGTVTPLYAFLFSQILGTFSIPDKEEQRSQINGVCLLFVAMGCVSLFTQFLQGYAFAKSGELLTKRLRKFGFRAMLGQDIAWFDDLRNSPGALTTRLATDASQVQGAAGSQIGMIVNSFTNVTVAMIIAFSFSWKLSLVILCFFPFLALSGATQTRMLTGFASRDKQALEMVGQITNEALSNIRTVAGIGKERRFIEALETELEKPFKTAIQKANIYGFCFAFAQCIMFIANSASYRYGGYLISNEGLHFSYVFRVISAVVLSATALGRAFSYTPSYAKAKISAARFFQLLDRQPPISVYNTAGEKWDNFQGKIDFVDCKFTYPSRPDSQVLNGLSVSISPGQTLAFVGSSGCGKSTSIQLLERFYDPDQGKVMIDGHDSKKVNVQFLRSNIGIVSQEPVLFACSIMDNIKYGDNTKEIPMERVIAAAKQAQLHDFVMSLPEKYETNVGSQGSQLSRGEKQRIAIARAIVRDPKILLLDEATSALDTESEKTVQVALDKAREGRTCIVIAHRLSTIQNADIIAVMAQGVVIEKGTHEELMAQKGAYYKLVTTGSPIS
Experiment [12] concerns the target Prothrombin (Homo sapiens, UniProt P00734). Format: functional.
The target of experiment [13] is Sodium-dependent dopamine transporter (Homo sapiens, UniProt Q01959).
Sequence of Sodium-dependent dopamine transporter (Q01959 whole entry): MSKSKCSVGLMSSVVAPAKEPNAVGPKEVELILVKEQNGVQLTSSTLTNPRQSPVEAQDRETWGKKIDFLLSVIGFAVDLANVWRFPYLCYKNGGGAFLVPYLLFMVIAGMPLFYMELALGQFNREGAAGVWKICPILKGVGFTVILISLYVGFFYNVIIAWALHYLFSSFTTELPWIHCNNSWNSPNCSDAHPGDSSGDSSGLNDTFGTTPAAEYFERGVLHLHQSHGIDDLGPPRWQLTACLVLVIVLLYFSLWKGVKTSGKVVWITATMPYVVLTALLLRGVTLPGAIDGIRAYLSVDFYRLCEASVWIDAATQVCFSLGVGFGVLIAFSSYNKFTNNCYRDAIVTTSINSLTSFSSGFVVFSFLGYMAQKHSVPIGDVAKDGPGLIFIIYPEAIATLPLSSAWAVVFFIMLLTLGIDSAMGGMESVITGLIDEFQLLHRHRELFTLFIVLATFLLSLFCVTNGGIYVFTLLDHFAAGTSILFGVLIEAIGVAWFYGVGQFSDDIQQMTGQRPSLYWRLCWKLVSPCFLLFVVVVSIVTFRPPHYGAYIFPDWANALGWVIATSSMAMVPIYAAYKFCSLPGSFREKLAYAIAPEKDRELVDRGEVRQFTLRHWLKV
Experiment [14] concerns the target Mu-type opioid receptor (Homo sapiens, UniProt P35372).
The target in experiment [15] is 3',5'-cyclic-AMP phosphodiesterase 4A (Homo sapiens, UniProt P27815). Format: functional.
Experiment [16] concerns the target Acetylcholinesterase (Homo sapiens, UniProt P22303). The format is functional.
For experiment [17], the target named is T1, Thromboxane A2 receptor. The format is functional, cell-based. The source holds these as a separate data set.
Experiment [18] concerns the target 5-hydroxytryptamine receptor 2B (Homo sapiens, UniProt P41595). Format: functional, cell-based.

This passage reports AC50 results from ChEMBL document CHEMBL5291721, “A preclinical secondary pharmacology resource illuminates target-adverse drug reaction associations of marketed drugs” (Nat Commun, 2023).
Also: assay procedure not described here.

Sequence of Prostaglandin G/H synthase 1 (P23219 whole entry): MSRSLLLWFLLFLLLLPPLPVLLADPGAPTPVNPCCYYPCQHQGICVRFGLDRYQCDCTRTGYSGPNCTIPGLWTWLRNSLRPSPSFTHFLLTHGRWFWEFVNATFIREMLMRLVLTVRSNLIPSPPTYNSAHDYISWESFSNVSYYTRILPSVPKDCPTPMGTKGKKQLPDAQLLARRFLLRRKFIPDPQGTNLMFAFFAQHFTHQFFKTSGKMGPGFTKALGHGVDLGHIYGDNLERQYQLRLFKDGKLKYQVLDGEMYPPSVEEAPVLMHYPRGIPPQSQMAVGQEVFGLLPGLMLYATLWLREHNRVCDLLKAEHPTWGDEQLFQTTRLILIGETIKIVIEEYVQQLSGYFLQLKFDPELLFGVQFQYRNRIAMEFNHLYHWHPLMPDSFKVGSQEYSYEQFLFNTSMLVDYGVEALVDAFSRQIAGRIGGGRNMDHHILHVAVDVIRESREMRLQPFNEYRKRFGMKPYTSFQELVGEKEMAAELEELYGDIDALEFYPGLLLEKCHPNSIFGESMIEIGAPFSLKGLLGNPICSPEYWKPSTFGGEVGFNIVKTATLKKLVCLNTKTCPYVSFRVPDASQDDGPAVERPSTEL
Sequence of D(3) dopamine receptor (P35462 whole entry): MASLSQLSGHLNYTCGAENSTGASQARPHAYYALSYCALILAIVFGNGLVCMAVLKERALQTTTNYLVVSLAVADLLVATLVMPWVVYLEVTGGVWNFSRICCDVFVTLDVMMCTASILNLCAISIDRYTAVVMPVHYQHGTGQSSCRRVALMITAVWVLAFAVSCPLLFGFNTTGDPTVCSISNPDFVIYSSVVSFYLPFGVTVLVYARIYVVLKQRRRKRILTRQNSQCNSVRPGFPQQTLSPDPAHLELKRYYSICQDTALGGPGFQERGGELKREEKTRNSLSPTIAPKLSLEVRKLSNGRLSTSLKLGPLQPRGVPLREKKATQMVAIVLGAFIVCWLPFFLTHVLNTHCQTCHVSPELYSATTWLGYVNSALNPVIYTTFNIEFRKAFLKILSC
Sequence of 5-hydroxytryptamine receptor 2B (P41595 whole entry): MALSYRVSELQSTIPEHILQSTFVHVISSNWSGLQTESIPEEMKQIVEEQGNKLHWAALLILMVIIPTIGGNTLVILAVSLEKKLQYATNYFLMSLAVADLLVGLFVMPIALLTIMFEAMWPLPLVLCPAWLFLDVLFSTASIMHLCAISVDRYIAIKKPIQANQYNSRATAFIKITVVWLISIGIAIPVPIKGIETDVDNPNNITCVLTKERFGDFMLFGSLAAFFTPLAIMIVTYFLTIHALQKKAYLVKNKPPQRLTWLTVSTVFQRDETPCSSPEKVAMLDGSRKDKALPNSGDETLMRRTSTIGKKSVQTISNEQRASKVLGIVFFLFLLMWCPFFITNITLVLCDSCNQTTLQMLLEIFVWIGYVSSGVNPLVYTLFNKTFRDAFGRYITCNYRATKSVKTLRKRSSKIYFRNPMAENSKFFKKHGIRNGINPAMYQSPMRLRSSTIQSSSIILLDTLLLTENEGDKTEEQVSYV

As usually defined, the AC50 is the concentration giving half of the maximal activity seen. As to `COc1cc2nccc(Oc3ccc(NC(=O)C4(C(=O)Nc5ccc(F)cc5)CC4)cc3)c2cc1OC` [CABOZANTINIB], the concentration at half-maximal activity (AC50) in experiment [1] is 27.9 µM; in experiment [2], more than 30 µM; in experiment [3], more than 30 µM; in experiment [4] it was 17.5 µM; in experiment [5], 4.42 µM; in experiment [6] it was more than 30 µM. Besides, the AC50 in experiment [7] is 8.3 µM; in experiment [8], more than 30 µM; in experiment [9] it was more than 30 µM; in experiment [10], more than 30 µM; in experiment [11], 8.8 µM; in experiment [12] it was more than 30 µM. Also, the AC50 in experiment [13], in [14], in [15], in experiment [16], in experiment [17] and in experiment [18] was more than 30 µM in each case.
`OC[C@H]1O[C@@H](c2ccc(Cl)c(Cc3ccc(O[C@H]4CCOC4)cc3)c2)[C@H](O)[C@@H](O)[C@@H]1O` [EMPAGLIFLOZIN]: the AC50 in experiment [1], in experiment [2], in experiment [3], in experiment [4], in experiment [5] and in experiment [6] was more than 30 µM each time. The AC50 was more than 30 µM in experiment [7]; more than 30 µM in experiment [8]; more than 30 µM in experiment [9]; more than 30 µM in experiment [10]; more than 300 µM in experiment [11]; more than 30 µM in experiment [12]. The half-maximal activity concentration (AC50) in experiment [13], in experiment [14], in experiment [15], in experiment [16], in [17] and in [18] was more than 30 µM throughout.
`CC(C)(O)CNc1nc(Nc2ccnc(C(F)(F)F)c2)nc(-c2cccc(C(F)(F)F)n2)n1` [ENASIDENIB]: the AC50 was more than 30 µM in [1]; 14.1 µM in experiment [2]; more than 30 µM in experiment [3]; 7.09 µM in [4]; more than 30 µM in [5]; more than 30 µM in [6]. Further, the AC50 in [7] was more than 30 µM; in [8], more than 30 µM; in experiment [9] it was more than 30 µM; in experiment [10], more than 30 µM; in [11], 5.3 µM; in [12] it was more than 30 µM. Also, the AC50 in experiment [13] is more than 30 µM; in experiment [14], 21.5 µM; in experiment [15] it was more than 30 µM; in experiment [16], more than 30 µM; in [17], more than 30 µM; in [18], more than 30 µM.
For the compound `CC(C)C[C@H](NC(=O)CNC(=O)c1cc(Cl)ccc1Cl)B(O)O` [IXAZOMIB], the AC50 in [1], in [2], in experiment [3], in [4], in experiment [5] and in [6] was more than 30 µM each time. Moreover, the AC50 was more than 30 µM in [7]; more than 30 µM in experiment [8]; more than 30 µM in experiment [9]; more than 30 µM in experiment [10]; more than 300 µM in experiment [11]; more than 30 µM in [12]. In addition, the AC50 in experiment [13] is more than 30 µM; in experiment [14], more than 30 µM; in [15], 29.9 µM; in experiment [16], more than 30 µM; in experiment [17] it was more than 30 µM; in [18], more than 30 µM.
On to `C[N+](C)(C)C[C@H](O)CC(=O)[O-]` [LEVOCARNITINE], for which the AC50 in [1], in experiment [2], in experiment [3], in experiment [4], in experiment [5] and in [6] was more than 30 µM in each case. Besides, the AC50 in [7] is more than 30 µM; in experiment [8], more than 30 µM; in experiment [9], more than 30 µM; in [10], more than 30 µM; in experiment [11], more than 300 µM; in [12], more than 30 µM. For the same compound, the AC50 in experiment [13], in experiment [14], in experiment [15], in experiment [16], in [17] and in experiment [18] was more than 30 µM throughout.
Consider `C[C@@H]1C[C@H]2[C@@H]3CCC4=CC(=O)C=C[C@]4(C)[C@@]3(Cl)[C@@H](O)C[C@]2(C)[C@@]1(OC(=O)c1ccco1)C(=O)CCl` [MOMETASONE FUROATE], for which the concentration at half-maximal activity (AC50) in experiment [1], in experiment [2], in experiment [3], in experiment [4], in [5] and in experiment [6] was more than 30 µM throughout. Moreover, the AC50 in experiment [7] is more than 30 µM; in experiment [8] it was more than 30 µM; in experiment [9], more than 30 µM; in experiment [10], more than 30 µM; in experiment [11] it was 2.4 µM; in experiment [12], more than 30 µM. The AC50 in [13], in experiment [14], in experiment [15], in [16], in experiment [17] and in experiment [18] was more than 30 µM throughout.
Turning to `Cc1ccccc1C(=O)Nc1ccc(C(=O)N2CCCC(N(C)C)c3ccccc32)cc1` (configuration not stated) [MOZAVAPTAN], the AC50 in experiment [1], in [2], in [3], in experiment [4], in experiment [5] and in experiment [6] was more than 30 µM in each case. Also, the AC50 is more than 30 µM in [7]; more than 30 µM in [8]; 5.8 µM in experiment [9]; more than 30 µM in [10]; 14 µM in [11]; more than 30 µM in experiment [12]. Also, the AC50 was more than 30 µM in experiment [13]; 2.48 µM in experiment [14]; more than 30 µM in [15]; more than 30 µM in [16]; more than 30 µM in [17]; more than 30 µM in experiment [18].
As for `O=C(O)c1cc(/N=N/c2ccc(O)c(C(=O)O)c2)ccc1O` [OLSALAZINE], the AC50 in experiment [1], in [2], in experiment [3], in [4], in [5] and in experiment [6] was more than 30 µM each time. Also, the concentration at half-maximal activity (AC50) in experiment [7] was more than 30 µM; in experiment [8], more than 30 µM; in experiment [9], more than 30 µM; in experiment [10], more than 30 µM; in experiment [11] it was more than 300 µM; in experiment [12], more than 30 µM. Moreover, the concentration at half-maximal activity (AC50) is more than 30 µM in experiment [13]; more than 30 µM in experiment [14]; 13.2 µM in [15]; more than 30 µM in experiment [16]; more than 30 µM in experiment [17]; more than 30 µM in [18].
`CCOC(=O)C1=C[C@@H](OC(CC)CC)[C@H](NC(C)=O)[C@@H](N)C1` [OSELTAMIVIR]: the AC50 in experiment [1], in [2], in experiment [3], in experiment [4], in experiment [5] and in [6] was more than 30 µM in each case. For the same compound, the concentration at half-maximal activity (AC50) in experiment [7] was more than 30 µM; in experiment [8], more than 30 µM; in experiment [9] it was more than 30 µM; in experiment [10], more than 30 µM; in experiment [11], more than 300 µM; in [12], more than 30 µM. Also, the AC50 in [13], in experiment [14], in [15], in experiment [16], in [17] and in experiment [18] was more than 30 µM in each case.
